Assays:
[1] = target: T1, HIV-1 RT K103N/P225H (Human immunodeficiency virus type 1 group M subtype B, UniProt P03366, K702N/P824H); test: Reverse transcriptase (RT) assay, K103N/P225H mutant; assay type: biochemical
T1 construct: an HIV RT clone pKRT2 containing only the RT p66 gene regulated by the lac operon/trc promoter; made in house; host or cells: E. coli JM109, vector pKK233-2
Outline: (§1)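 Mutant HIV-1 RTs (bacterially expressed, purified heterodimers) were assayed like the wild-type enzyme: radiolabelled dGTP was incorporated during transcription of a DNA strand off a poly r(C) template with biotin-tagged oligo d(G) primer, and compound inhibition of this incorporation was determined.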

[2] = tested on: HIV coding for mutant reverse transcriptase K103N/Y181C; test: ELISA (p24) assay of HIV replication in C8166 cell culture, K103N/Y181C virus; assay type: cell-based, HIV-1; conditions: Human immunodeficiency virus 1, C8166, 72 h, read-out: EC50 K103N/Y181C
Method: Compounds of the invention were tested for their ability to inhibit HIV replication in cell culture in a 96-well plate assay. Complete RPMI 1640, consisting of RPMI 1640+10% fetal bovine serum, 10 μg/ml gentamycin and 10 μM β-mercaptoethanol was used for dilution of the compound as well as cell growth medium. The T lymphocyte cell line C8166 was infected at a multiplicity of infection of 0.001 with viruses coding for wild-type and mutant reverse transcriptase. Cells were then incubated for three days in the presence of serial dilutions of the compounds of the invention. The supernatant was pooled from eight replica wells and the concentration of extracellular p24 was determined using a commercially available HIV-1 p24 antigen assay kit (Beckman-Coulter®). The level of inhibition (% inhibition) was calculated with the following equation: [formula]

[3] = target: T2, HIV-1 RT K103N/Y181C (Human immunodeficiency virus type 1 group M subtype B, UniProt P03366, K702N/Y780C); test: Reverse transcriptase (RT) assay, K103N/Y181C mutant; assay type: biochemical
T2 construct: an HIV RT clone pKRT2 containing only the RT p66 gene regulated by the lac operon/trc promoter; made in house; host or cells: E. coli JM109, vector pKK233-2
Outline: as §1

Row | Compound | IC50 [1] [nM] | EC50 [2] [nM] | IC50 [3] [nM]
1 | CCN1c2ncc(CCOc3cc[n+]([O-])c4ccccc34)cc2C(=O)N(C)c2ccc(F)nc21 [compound 11, 5,11-Dihydro-11-ethyl-2-fluoro-5-methyl-8-{2-{(1-oxido-4-quinolinyl)oxy}-ethyl}-6H-dipyrido[3,2-b:2′,3′-e][1,4]diazepin-6-one] | 15 | 7.5 | 55
2 | CCN1c2ncc(CCOc3cc[n+]([O-])c4ccccc34)cc2C(=O)N(C)c2ccc(Cl)nc21 [compound 17, 2-Chloro-5,11-dihydro-11-ethyl-5-methyl-8-{2-{(1-oxido-4-quinolinyl)oxy}-ethyl}-6H-dipyrido[3,2-b:2′,3′-e][1,4]diazepin-6-one] | 23 | 2.3 | 48
3 | CCN1c2ncc(CCOc3cc[n+]([O-])c4ccccc34)cc2C(=O)N(C)c2cccnc21 [compound 21, 5,11-Dihydro-11-ethyl-5-methyl-8-{2-{(1-oxido-4-quinolinyl)oxy}ethyl}-6H-dipyrido[3,2-b:2′,3′-e][1,4]diazepin-6-one] | 40 | 4.3 | 95
